Here are results for 16 molecules from patent US11840533B2, “Pyridinone-based epigenetic modifiers and uses thereof” (THE BOARD OF TRUSTEES OF THE UNIVERSITY OF ILLINOIS, priority 2017, dated 2023).

Assay [1] has as its system fulvestrant-resistant MCF7:5C-FR cells. Briefly: Fulvestrant-resistant breast cancer cell viability (cell proliferation) assay. Particulars: for IC50: growth inhibition in fulvestrant-resistant MCF-7:CFR cells, 120 hrs. The assay is classed as cell-based. A digest of the protocol: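 Cells were treated the day after seeding with compounds at 3 nM to 10 uM for 120 h, with 0.1% DMSO vehicle and 1 uM JQ1 as positive control. Hoechst 33342-stained (5 μg/ml, 90 min, 37 C) nuclei were imaged and counted, and cell numbers normalized to vehicle.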

Another assay has as its target BRD4 bromodomain 1 (Homo sapiens (Human), UniProt O60885). Briefly: TR-FRET BRD4 binding assay, bromodomain 1. The conditions noted are these: read-out: TR-FRET BRD4-BD1 Ki. The protocol: (§1) Briefly, compounds were serial diluted into the 1×TR-FRET Assay Buffer with no more than 8% DMSO, and the final concentration tested was distributed from […] to 10 uM with no more than 2% DMSO. (+)JQ-1 was used as positive control. […] Then the reconstituted BRD4 bromodomain ligand/APC Acceptor Mixture were added to every well and incubate for 1 hr at room temperature. The plate was sealed with adhesive aluminum seal to prevent photobleaching. Then the plate was read in time-resolved format by exiting the well at 340 nm and reading emmission at 620 and 670 nm, using 100 us delay and 500 us read window. Data analysis was performed using the TR-FRET ratio which is the 670 nm emission/620 nm emission.
Background: In TR-FRET formats the signal depends on donor and acceptor labels being close together.

The target in the next assay is BRD4 bromodomain 2 (Homo sapiens (Human), UniProt O60885). Briefly: TR-FRET BRD4 binding assay, bromodomain 2. The conditions noted are these: read-out: TR-FRET BRD4-BD2 Ki. As to the method: as §1
Assay [2] has as its system 3D spheroids of fulvestrant-resistant MCF-7:CFR. Briefly: Growth of 3D spheroids of fulvestrant-resistant MCF-7:CFR. Particulars: FIG. 11; vs JQ1 and AZD-5153. In kind it is cell-based.
The target of the next assay is BAZ2A (Homo sapiens (Human), UniProt Q9UIF9). Briefly: BROMOscan. In kind it is binding. From the text:
(§2) BROMOscan is a bromodomain inhibitor binding platform provided by DiscoverX that measures the interactions between compounds and a panel of bromodomain proteins.

In the next assay the target is BRD1 (Homo sapiens (Human), UniProt O95696). Briefly: BROMOscan. In kind it is binding.
From the text: as §2

A further assay concerns the target BRD2(1) (Homo sapiens (Human), UniProt P25440). Briefly: BROMOscan. The assay is classed as binding.
From the text: as §2

The target in the next assay is BRD2(1, 2) (Homo sapiens (Human), UniProt P25440). Briefly: BROMOscan. In kind it is binding.
From the text: as §2

Another assay deals with BRD2(2) (Homo sapiens (Human), UniProt P25440). Briefly: BROMOscan. In kind it is binding.
From the text: as §2

A further assay has as its target BRD3(1) (Homo sapiens (Human), UniProt Q15059). Briefly: BROMOscan. In kind it is binding.
From the text: as §2

The target in another assay is BRD3(1, 2) (Homo sapiens (Human), UniProt Q15059). Briefly: BROMOscan. The assay is classed as binding.
From the text: as §2

A further assay concerns the target BRD3(2) (Homo sapiens (Human), UniProt Q15059). Briefly: BROMOscan. In kind it is binding.
From the text: as §2

A further assay concerns the target BRD8(1) (Homo sapiens (Human), UniProt Q9H0E9). Briefly: BROMOscan. In kind it is binding.
From the text: as §2

For a further assay, the target named is BRD9 (Homo sapiens (Human), UniProt Q9H8M2). Briefly: BROMOscan. In kind it is binding.
From the text: as §2

The next assay concerns the target BRDT(1) (Homo sapiens (Human), UniProt Q58F21). Briefly: BROMOscan. The assay is classed as binding.
From the text: as §2

In the next assay the target is BRDT(1, 2) (Homo sapiens (Human), UniProt Q58F21). Briefly: BROMOscan. The assay is classed as binding.
From the text: as §2

The next assay concerns the target BRDT(2) (Homo sapiens (Human), UniProt Q58F21). Briefly: BROMOscan. The assay is classed as binding.
From the text: as §2

The target in the next assay is BRPF1 (Homo sapiens (Human), UniProt P55201). Briefly: BROMOscan. In kind it is binding.
From the text: as §2

A further assay concerns the target CECR2 (Homo sapiens (Human), UniProt Q9BXF3). Briefly: BROMOscan. In kind it is binding.
From the text: as §2

A further assay concerns the target CREBBP (Homo sapiens (Human), UniProt Q92793). Briefly: BROMOscan. In kind it is binding.
From the text: as §2

Another assay addresses EP300 (Homo sapiens (Human), UniProt Q09472). Briefly: BROMOscan. In kind it is binding.
From the text: as §2

For another assay, the target named is PBRM1(5) (Homo sapiens (Human), UniProt Q86U86). Briefly: BROMOscan. In kind it is binding.
From the text: as §2

The next assay concerns the target TAF1(2) (Homo sapiens (Human), UniProt P21675). Briefly: BROMOscan. The assay is classed as binding.
From the text: as §2

In the next assay the target is TAF1L(2) (Homo sapiens (Human), UniProt Q8IZX4). Briefly: BROMOscan. In kind it is binding.
From the text: as §2

For the next assay, the target named is TRIM24(Bromo.) (Homo sapiens (Human), UniProt O15164). Briefly: BROMOscan. The assay is classed as binding.
From the text: as §2

The test system of the next assay is BET family proteins. Briefly: BROMOscan panel of bromodomain proteins. The assay is classed as binding. The conditions noted are these: FIG. 6.
From the text: as §2

Chain of BAZ2A (Q9UIF9 whole entry): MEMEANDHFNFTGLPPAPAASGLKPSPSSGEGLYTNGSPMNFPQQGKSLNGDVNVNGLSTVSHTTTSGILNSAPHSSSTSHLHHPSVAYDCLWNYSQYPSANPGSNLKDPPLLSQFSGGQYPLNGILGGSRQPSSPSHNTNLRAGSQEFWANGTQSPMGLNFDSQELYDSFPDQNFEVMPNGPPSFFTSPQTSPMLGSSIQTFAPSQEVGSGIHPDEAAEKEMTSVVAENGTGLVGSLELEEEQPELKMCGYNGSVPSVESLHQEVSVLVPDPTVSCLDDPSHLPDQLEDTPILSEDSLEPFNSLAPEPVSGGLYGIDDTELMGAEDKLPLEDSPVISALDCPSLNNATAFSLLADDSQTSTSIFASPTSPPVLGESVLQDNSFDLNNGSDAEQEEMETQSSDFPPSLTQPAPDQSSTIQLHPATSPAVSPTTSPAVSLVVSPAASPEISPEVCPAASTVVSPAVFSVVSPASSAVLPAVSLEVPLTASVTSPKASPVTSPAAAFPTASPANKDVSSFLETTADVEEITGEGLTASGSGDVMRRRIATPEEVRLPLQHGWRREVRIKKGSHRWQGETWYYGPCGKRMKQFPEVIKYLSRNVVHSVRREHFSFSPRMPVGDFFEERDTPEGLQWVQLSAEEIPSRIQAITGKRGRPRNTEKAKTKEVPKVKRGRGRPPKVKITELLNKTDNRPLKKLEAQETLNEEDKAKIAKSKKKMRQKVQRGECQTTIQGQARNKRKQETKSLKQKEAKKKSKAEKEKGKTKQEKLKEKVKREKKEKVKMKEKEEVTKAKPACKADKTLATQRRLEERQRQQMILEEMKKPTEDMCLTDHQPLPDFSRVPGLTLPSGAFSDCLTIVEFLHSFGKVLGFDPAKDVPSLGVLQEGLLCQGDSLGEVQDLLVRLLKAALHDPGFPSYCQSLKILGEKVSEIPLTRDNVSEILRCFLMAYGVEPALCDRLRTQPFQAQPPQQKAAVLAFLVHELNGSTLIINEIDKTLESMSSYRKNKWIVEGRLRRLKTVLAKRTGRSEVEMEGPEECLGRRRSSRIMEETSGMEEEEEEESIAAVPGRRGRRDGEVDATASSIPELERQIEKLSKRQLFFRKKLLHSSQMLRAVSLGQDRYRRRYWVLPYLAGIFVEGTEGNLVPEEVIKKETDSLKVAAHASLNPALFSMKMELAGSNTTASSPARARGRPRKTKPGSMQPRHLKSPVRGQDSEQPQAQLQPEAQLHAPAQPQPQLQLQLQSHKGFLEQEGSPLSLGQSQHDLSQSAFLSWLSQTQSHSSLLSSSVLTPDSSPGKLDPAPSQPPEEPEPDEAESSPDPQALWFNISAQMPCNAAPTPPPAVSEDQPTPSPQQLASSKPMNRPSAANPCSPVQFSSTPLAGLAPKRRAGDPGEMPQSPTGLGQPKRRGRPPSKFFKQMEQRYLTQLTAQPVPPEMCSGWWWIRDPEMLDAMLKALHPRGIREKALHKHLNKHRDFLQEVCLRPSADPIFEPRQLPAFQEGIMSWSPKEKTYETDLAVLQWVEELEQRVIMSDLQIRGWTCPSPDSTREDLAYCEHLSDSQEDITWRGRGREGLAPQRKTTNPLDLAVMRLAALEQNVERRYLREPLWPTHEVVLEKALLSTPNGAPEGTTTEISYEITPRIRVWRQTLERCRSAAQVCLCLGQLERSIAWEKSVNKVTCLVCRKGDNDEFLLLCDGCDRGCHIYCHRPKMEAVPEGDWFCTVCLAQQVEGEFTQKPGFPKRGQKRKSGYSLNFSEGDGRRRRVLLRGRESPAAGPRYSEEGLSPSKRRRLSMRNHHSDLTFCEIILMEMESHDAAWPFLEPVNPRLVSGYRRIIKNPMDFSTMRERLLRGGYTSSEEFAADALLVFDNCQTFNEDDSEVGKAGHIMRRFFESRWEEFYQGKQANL
Chain of BRD2(1) (P25440 74-180): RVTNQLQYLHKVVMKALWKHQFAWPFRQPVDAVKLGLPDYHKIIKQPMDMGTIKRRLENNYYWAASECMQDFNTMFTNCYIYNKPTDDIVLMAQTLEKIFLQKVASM
Chain of BRD1 (O95696 whole entry): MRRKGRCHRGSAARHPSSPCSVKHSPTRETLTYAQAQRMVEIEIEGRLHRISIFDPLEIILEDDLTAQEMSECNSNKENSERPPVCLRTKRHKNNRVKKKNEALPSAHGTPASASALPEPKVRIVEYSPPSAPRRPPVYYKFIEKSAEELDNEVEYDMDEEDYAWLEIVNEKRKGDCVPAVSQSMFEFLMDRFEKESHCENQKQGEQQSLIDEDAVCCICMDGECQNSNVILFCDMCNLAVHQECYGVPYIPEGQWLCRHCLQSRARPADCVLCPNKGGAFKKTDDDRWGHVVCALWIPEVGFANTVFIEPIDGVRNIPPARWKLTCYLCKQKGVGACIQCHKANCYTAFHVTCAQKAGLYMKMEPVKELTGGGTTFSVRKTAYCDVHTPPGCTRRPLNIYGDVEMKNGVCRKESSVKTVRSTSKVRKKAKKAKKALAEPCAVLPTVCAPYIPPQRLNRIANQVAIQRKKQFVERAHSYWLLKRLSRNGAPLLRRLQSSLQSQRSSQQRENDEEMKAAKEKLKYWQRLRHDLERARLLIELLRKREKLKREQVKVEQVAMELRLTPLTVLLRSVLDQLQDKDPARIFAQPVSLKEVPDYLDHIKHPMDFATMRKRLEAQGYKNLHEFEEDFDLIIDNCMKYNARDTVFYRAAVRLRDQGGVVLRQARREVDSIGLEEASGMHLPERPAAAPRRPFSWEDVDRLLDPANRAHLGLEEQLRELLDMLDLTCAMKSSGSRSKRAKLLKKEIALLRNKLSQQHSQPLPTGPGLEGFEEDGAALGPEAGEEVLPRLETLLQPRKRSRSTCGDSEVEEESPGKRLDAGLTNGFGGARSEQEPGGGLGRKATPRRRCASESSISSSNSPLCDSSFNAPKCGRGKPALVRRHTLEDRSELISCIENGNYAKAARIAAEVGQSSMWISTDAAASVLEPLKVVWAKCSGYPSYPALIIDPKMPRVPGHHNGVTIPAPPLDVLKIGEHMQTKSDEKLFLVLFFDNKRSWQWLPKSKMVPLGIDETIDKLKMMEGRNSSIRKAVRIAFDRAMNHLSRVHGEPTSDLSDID
Chain of TRIM24(Bromo.) (O15164 899-1004): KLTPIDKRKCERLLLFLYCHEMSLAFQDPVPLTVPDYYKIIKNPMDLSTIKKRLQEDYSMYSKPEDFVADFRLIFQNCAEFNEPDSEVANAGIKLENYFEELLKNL
Chain of TAF1(2) (P21675 1519-1628): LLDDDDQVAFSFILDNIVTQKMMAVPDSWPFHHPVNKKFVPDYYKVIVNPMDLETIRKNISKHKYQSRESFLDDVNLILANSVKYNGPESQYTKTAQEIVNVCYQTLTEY
Chain of TAF1L(2) (Q8IZX4 1517-1626): as the sequence (P21675 1519-1628) above, with V46M, M51V, V102I, L107I counted along it
Chain of BRD2(1, 2) (P25440 71-455): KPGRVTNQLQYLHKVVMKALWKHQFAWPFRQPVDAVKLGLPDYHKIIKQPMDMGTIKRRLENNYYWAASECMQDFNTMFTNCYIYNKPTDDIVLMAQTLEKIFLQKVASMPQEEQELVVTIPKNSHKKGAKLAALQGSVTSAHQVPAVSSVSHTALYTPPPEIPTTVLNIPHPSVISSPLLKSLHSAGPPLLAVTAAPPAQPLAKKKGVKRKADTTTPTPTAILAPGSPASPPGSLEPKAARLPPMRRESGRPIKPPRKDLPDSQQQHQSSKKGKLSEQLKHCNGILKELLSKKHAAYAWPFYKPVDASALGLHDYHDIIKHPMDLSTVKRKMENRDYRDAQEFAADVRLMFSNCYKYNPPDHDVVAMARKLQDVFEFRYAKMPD
Chain of BRD9 (Q9H8M2 whole entry): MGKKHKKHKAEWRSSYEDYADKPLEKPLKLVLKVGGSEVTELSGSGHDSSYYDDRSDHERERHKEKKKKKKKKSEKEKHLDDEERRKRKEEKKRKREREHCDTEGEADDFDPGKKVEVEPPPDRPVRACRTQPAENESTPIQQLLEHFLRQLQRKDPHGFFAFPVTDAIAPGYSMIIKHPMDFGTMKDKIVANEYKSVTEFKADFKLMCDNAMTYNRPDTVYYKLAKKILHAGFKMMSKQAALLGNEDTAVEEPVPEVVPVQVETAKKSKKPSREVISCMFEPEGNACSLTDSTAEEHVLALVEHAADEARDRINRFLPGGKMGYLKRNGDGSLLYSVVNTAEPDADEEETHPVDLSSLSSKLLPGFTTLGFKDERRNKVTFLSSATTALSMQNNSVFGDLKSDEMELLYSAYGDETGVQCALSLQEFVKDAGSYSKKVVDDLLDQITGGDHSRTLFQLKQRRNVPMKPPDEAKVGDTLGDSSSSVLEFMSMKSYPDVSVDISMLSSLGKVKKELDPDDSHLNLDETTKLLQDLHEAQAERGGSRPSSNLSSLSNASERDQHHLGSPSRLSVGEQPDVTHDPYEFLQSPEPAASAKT
Chain of BRD8(1) (Q9H0E9 706-811): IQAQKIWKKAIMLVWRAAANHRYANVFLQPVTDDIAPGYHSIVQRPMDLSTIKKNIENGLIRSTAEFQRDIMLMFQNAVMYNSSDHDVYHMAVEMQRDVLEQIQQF
Chain of BRD3(1) (Q15059 34-140): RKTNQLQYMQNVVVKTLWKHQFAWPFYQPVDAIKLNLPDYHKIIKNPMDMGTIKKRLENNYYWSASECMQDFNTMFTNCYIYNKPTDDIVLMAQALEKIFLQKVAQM
Chain of PBRM1(5) (Q86U86 653-763): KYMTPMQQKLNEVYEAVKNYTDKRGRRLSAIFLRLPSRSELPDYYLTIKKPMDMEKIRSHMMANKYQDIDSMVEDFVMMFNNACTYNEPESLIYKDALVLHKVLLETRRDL
Chain of BRD3(2) (Q15059 306-415): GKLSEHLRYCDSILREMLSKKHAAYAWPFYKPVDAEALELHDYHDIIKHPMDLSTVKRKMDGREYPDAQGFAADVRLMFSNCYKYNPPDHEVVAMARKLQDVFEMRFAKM
Chain of BRD2(2) (P25440 344-453): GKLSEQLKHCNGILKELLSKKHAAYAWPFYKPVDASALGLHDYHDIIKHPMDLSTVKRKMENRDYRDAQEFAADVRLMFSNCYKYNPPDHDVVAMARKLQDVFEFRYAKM

Regarding `Cn1cc(-c2cc(NS(C)(=O)=O)c3ccn(Cc4ccc(F)cc4)c3c2)c2ccnc(O)c21` [Compound 23, N-(1-(4-fluorobenzyl)-6-(7-hydroxy-1-methyl-1H-pyrrolo[2,3-c]pyridin-3-yl)-1-indol-4-yl)methanesulfonamide], the IC50 (as a rule, the concentration that inhibits the measured activity by half) in assay [1] (120 h) is 17 nM. The Ki at BRD4 bromodomain 1 and on BRD4 bromodomain 2 was less than 100 nM throughout.
On to `Cn1cc(-c2cc(NS(C)(=O)=O)c3cnn(Cc4ccc(F)cc4)c3c2)c2ccnc(O)c21` [Compound 30, N-(1-(4-fluorobenzyl)-6-(7-hydroxy-1-methyl-1H-pyrrolo[2,3-c]pyridin-3-yl)-1H-indazol-4-yl)methanesulfonamide], for which it took 40 nM to reach half-maximal inhibition in [1] (120 h) (IC50). Also, the Ki on BRD4 bromodomain 1 and on BRD4 bromodomain 2 was less than 100 nM throughout.
In the case of `CCS(=O)(=O)Nc1cc(-c2cn(C)c3c(O)nccc23)cc2c1cnn2Cc1ccc(F)cc1` [Compound 31, N-(1-(4-fluorobenzyl)-6-(7-hydroxy-1-methyl-1H-pyrrolo[2,3-c]pyridin-3-yl)-1H-indazol-4-yl)ethanesulfonamide], in [1] (120 h), the half-maximal inhibitory concentration (IC50) was 15 nM. The inhibition constant Ki on BRD4 bromodomain 1 and at BRD4 bromodomain 2 was less than 100 nM each time.
Consider `CCS(=O)(=O)Nc1cc(-c2cn(C)c3c(=O)[nH]ccc23)cc2c1ccn2C(C)(c1ccccn1)c1ccccn1` [Compound 70], for which the IC50 in assay [1] (120 h) came to 0.9 nM. For the same molecule, the “growth inhibition in comparison with clinical benchmark BET inhibitors” value in assay [1] (FIG. 10, vs BMS-98615, ABBV-075, AVR-771, AZD-5153, I-BET-762 and JQ1) is “superior potency”. The “efficacy in inhibiting the growth of 3D spheroids” value in assay [2] was “more efficacious than JQ1 and AZD-5153”. Besides, the Kd (as a rule, the constant that tells how readily two partners part at equilibrium) at BAZ2A is 3500 nM; on BRD1, 7700 nM; at BRD2(1), 0.27 nM; on BRD2(1, 2) it was 0.57 nM; on BRD2(2), 0.77 nM; at BRD3(1), 0.34 nM. Moreover, the Kd worked out at 0.27 nM at BRD3(1, 2); 0.61 nM at BRD3(2); 4900 nM at BRD8(1); 3500 nM at BRD9; 0.14 nM at BRDT(1); 0.23 nM at BRDT(1, 2). In addition, the Kd came out at 1.4 nM on BRDT(2); 360 nM at BRPF1; 6000 nM at CECR2; 110 nM on CREBBP; 37 nM on EP300; 6100 nM at PBRM1(5). In addition, the Kd on TAF1(2) was 9.1 nM; on TAF1L(2) it was 44 nM; on TRIM24(Bromo.), 4400 nM. In the assay on BET family proteins, the “binding affinity for BET family” value was “subnanomolar potency”.
In [1] (120 h), `CC(=O)Nc1cc(-c2cn(C)c3c(=O)[nH]ccc23)cc2c1ccn2C(C)(c1ccccn1)c1ccccn1` [Compound 71, N-(1-(1,1-di(pyridin-2-yl)ethyl)-6-(1-methyl-7-oxo-6,7-dihydro-1H-pyrrolo[2,3-c]pyridin-3-yl)-1H-indol-4-yl)acetamide] displayed an IC50 of 10 nM. In addition, the Ki on BRD4 bromodomain 1 and on BRD4 bromodomain 2 was less than 10 nM in each case.
In the case of `Cn1cc(-c2cc(C(C)(C)O)c3ccn(C(C)(c4ccccn4)c4ccccn4)c3c2)c2cc[nH]c(=O)c21` [Compound 72, 3-(1-(1,1-di(pyridin-2-yl)ethyl)-4-(2-hydroxypropan-2-yl)-1H-indol-6-yl)-1-methyl-1H-pyrrolo[2,3-c]pyridin-7(6H)-one], it took 20 nM to reach half-maximal inhibition in assay [1] (120 h) (IC50). Besides, the Ki on BRD4 bromodomain 1 and at BRD4 bromodomain 2 was less than 10 nM each time.
Molecule `Cn1cc(-c2cc3c(NS(C)(=O)=O)cccc3n2[C@@H](c2ccccc2)C2CCOCC2)c2ccnc(O)c21` [Compound 123, (R)-N-(2-(7-hydroxy-1-methyl-1H-pyrrolo[2,3-c]pyridin-3-yl)-1-(phenyl(tetrahydro-2H-pyran-4-yl)methyl)-1H-indol-4-yl)methanesulfonamide] registered an IC50 in assay [1] (120 h) of less than 1000 nM.
Take `CC(C)C(=O)Nc1cccc2c1cc(-c1cn(C)c3c(O)nccc13)n2[C@@H](c1ccccc1)C1CCOCC1` [Compound 124, (R)-N-(2-(7-hydroxy-1-methyl-1H-pyrrolo[2,3-c]pyridin-3-yl)-1-(phenyl(tetrahydro-2H-pyran-4-yl)methyl)-1H-indol-4-yl)isobutyramide]: the IC50 in assay [1] (120 h) is less than 1000 nM.
Still for that read-out and setting: then `CC(C)C(=O)Nc1cccc2c1cc(-c1cn(C)c3c(O)nccc13)n2[C@H](c1ccccc1)C1CCOCC1` [Compound 125, (S)-N-(2-(7-hydroxy-1-methyl-1H-pyrrolo[2,3-c]pyridin-3-yl)-1-(phenyl(tetrahydro-2H-pyran-4-yl)methyl)-1H-indol-4-yl)isobutyramide], with less than 1000 nM; and `CCC(c1ccccn1)(c1ccccn1)n1ccc2c(NS(=O)(=O)CC)cc(-c3cn(C)c4c(=O)[nH]ccc34)cc21` [Compound 126, N-(1-(1,1-di(pyridin-2-yl)propyl)-6-(1-methyl-7-oxo-6,7-dihydro-1H-pyrrolo[2,3-c]pyridin-3-yl)-1H-indol-4-yl)ethanesulfonamide], with less than 10 nM.
Still for that read-out and setting: for `CCC(c1ccccn1)(c1ccccn1)n1c(-c2cn(C)c3c(O)nccc23)nc2c(NS(=O)(=O)CC)cccc21` [Compound 127, N-(1-(1,1-di(pyridin-2-yl)propyl)-2-(7-hydroxy-1-methyl-1H-pyrrolo[2,3-c]pyridin-3-yl)-1H-benzo[d]imidazol-4-yl)ethanesulfonamide] the value was less than 1000 nM; for `Cn1cc(-c2cc(S(C)(=O)=O)c3ccn(C(C)(c4ccccn4)c4ccccn4)c3c2)c2cc[nH]c(=O)c21` [Compound 128, 3-(1-(1,1-di(pyridin-2-yl)ethyl)-4-(methylsulfonyl)-1H-indol-6-yl)-1-methyl-1,6-dihydro-7H-pyrrolo[2,3-c]pyridin-7-one], less than 1000 nM.
`CCS(=O)(=O)c1cc(-c2cn(C)c3c(=O)[nH]ccc23)cc2c1ccn2C(C)(c1ccccn1)c1ccccn1` [Compound 129, 3-(1-(1,1-di(pyridin-2-yl)ethyl)-4-(ethylsulfonyl)-1H-indol-6-yl)-1-methyl-1,6-dihydro-7H-pyrrolo[2,3-c]pyridin-7-one]: the IC50 in assay [1] (120 h) was less than 1000 nM.
The same measure, in the same setting: for `CC(C)C(=O)Nc1cc(-c2cn(C)c3c(=O)[nH]ccc23)cc2c1ccn2C(C)(c1ccccn1)c1ccccn1` [Compound 131, N-(1-(1,1-di(pyridin-2-yl)ethyl)-6-(1-methyl-7-oxo-6,7-dihydro-1H-pyrrolo[2,3-c]pyridin-3-yl)-1H-indol-4-yl)isobutyramide] the value was less than 100 nM; for `Cn1cc(-c2cc(NS(C)(=O)=O)c3ccn(C(C)(c4ccccn4)c4ccccn4)c3c2)c2cc[nH]c(=O)c21` [Compound 132, N-(1-(1,1-di(pyridin-2-yl)ethyl)-6-(1-methyl-7-oxo-6,7-dihydro-1H-pyrrolo[2,3-c]pyridin-3-yl)-1H-indol-4-yl)methanesulfonamide], 13 nM.
For “N-(1-benzhydryl-6-(1-methyl-7-oxo-6,7-dihydro-1H-pyrrolo[2,3-c]pyridin-3-yl)-1H-indol-4-yl)ethanesulfonamide [Compound 130]”, in [1], the IC50 is less than 100 nM.
